fluorescein = fluorescein label at the N-terminus
Each substance was assayed on immature embryos (assay: Translocation of fluoresceinated CPPs in zygotic embryos, fluorescence microscopy). Conditions: in the presence of cellular permeabilizing agent (toluene).
Type: cell-based, Triticale cv AC Alta
Method: The embryos were isolated from spikes two weeks post-anthesis (scutellum diameter 1-2 mm). The immature seeds were surface sterilized with 70% ethanol for 30 s followed by treatment with 10% hypochlorite (Chlorex) and a drop of Tween 20, 3 min. Four washings of 1 min each were given with sterile water. The embryos were hand dissected under sterile conditions. Isolated embryos were placed on GEM medium (Eudes et al, 2003) for 24 h in dark at room temperature prior to CPP translocation studies.
Isolated and sterilized embryos (20-25) were imbibed in total volume of 420 μl permeabilization buffer (15 mM sodium chloride, 1.5 mM sodium citrate, pH 7.1) containing cellular permeabilization agent toluene/ethanol (1:4) in 1:20 ratio with permeabilization buffer. To this 2.1 μl of 1 mM fluoresceinated CPP was added to give a final concentration of 5 μM. In negative controls, the embryos were treated with FITC-dextran sulphate or M-Tat. The embryos were incubated in the permeabilization mix for 1 h in dark at room temperature, followed by two washings with permeabilization buffer. The embryos were then treated with trypsin:EDTA (0.25% solution, Sigma-Aldrich) in 1:2 ratio with permeabilization buffer for 5 min at room temperature to remove free peptide molecules. Embryos were washed two times with permeabilization buffer and subjected either for fluorescence microscopy or spectrofluorimetric analysis.

Substance | Uptake seen by fluorescence microscopy (FIG. 1)
Dextran Sulphate | some fluorescence

Same assay, conditions: mature and immature embryos, with or without permeabilization

Substance | Fluorescence under fluorescence microscope, overall comparison
FI-LLIILRRRIRKQAHAHSK-amide (fluorescein-LLIILRRRIRKQAHAHSK-NH2) [pVEC] | least uptake
Dextran Sulphate | none or very weak fluorescence

Same assay, conditions: without cellular permeabilizing agent

Substance | Uptake seen by fluorescence microscopy (FIG. 1)
Dextran Sulphate | did not demonstrate any significant uptake

The substances below were run on isolated microspores of Triticale (variety Sunray) (assay: CPP delivery of GUS enzyme into isolated microspores, GUS staining). Conditions: GUS enzyme cargo:CPP 1:4, 1 hour at 37° C., three repeats.
Type: cell-based
Method: Triticale line Sunray grown in a growth cabinet with a photoperiod of 19 h day (intensity 300 μE m-2 s-1), and temperature 18-15° C. (day-night) with a relative humidity at about 70% was used as the donor plant material. The plants were fertilized every 2 weeks (20-20-20, 200 ppm) and treated with 2.5 ml I-1 Tilt™ (propiconazole, Syngenta) during the tillering stage and Intercept™ (0.004 g per litre of soil, Imidacloprid, Bayer) once sufficient root development was established. The first 10 tillers from each pot were harvested when the spike was at 3-4 cm, depending on the crop, from emergence from the boot. These tillers (to be used for microspore isolation) were subjected to pre-treatment in a refrigerator (4° C.) for 21 days with their bases in distilled water and their heads wrapped in aluminum foil. After 21±3 days of pre-treatment, the spikes were excised from their tillers and after an evaluation of their general appearance, only the most homogenous spikes were used. After confirming microspores at mid to bi-nucleate stage from a median floret, using acetocarmine staining, the tillers were processed for extraction.
Awns were removed with scissors in a laminar flow hood. Eight-fourteen spikes were used for microspore isolation. They were sterilized with 10% bleach (5.25% sodium hypochlorite) for 3 min followed by rinsing in sterile double distilled water four times of 1 min each with constant agitation. Outer glumes were removed and florets from all the spikes were aseptically dissected and transferred to a sterile and refrigerated 110 ml Warring blender cup (VWR international, #58983-093) containing 50 ml filter sterilized extraction buffer at 4° C. Florets were then blended twice for 7 s at low speed (18000 rpm). The slurry was then poured through a 1 mm sieve followed by pouring through a 100 μm sterile mesh (VWR International, #CA21008-950) into two 50 ml centrifuge tubes (25 ml each). The blender cup was rinsed with 50 ml extraction buffer at 4° C. and poured through the 100 μm mesh and was added to the first aliquot in the 50 ml tubes. The cells were then pelleted by centrifugation (100×g for 5 min at 4° C.) using a swinging bucket rotor. After pouring off the supernatant, the microspore-containing pellets were pooled together in one 50 ml tube and re-suspended in 50 ml cold extraction buffer. The cells were pelleted again with centrifugation (100×g for 5 min at 4° C.), the supernatant poured off and the pellet was transferred to a 15 ml tube. After re-suspending the pellet in CIMC Wash Buffer supplemented with 10 microM SS-31 peptide, it was subjected to wash and centrifugation using the above conditions. The supernatant was removed and the pellet was re-suspended in CIMC Wash buffer and centrifugation was repeated as above. The pellet was then suspended in 7 mL of 20% maltose at 4° C., layered with 1 mL of CIMC wash buffer and was centrifuged at 100 g for 13 min at 4° C. A band of microspores formed at the interface was collected in a new 15 ml tube. The cells were diluted with CIMC wash solution and subsequently collected by centrifugation at 150 g for 5 min. The supernatant was removed and the cells were finally suspended in a total volume of 1.4 ml of appropriate solution. After counting the cells using a haemocytometer, aliquots of 100,000 cells in 200 μl volume were prepared in 2 ml microcentrifuge tubes to be ready for transduction.
Peptide stock solutions were made in water at 1 μg/μl concentration. CPP (Nanocarrier) and GUS enzyme (cargo) were first prepared in separate microcentrifuge tubes. A total of 4 μg of CPP was prepared in sterile water to a final volume of 100 μl. Similarly, 1 μg of GUS enzyme was added to sterile water to a final volume of 100 μl. The contents of the two tubes were mixed together giving a ratio of 1:4 protein cargo:CPP. The complex was incubated for 30 min at room temperature (RT). Chariot (PAP1) protein delivering reagent was used as a positive control in the experiments. […]

Substance | Average Transduction Efficiency [%]
RRRIAGSALVGAPPQARRRRRRR [CPP52] | 0
RTSKRRVRRRRRRR [CPP38] | 0
RRRRRRRRRRVRFDSRR [CPP7] | 16.63
RSGRRDRRRKKGSAR [CPP59] | 0
RRRGRRRRRRRRQRQQRR [CPP6] | 15.07
MDERRRRRRRLTATRKVAAARRRRKRR [CPP54] | 6.21
KAKKNRSHIGKLKMTKTSGRKRSR [CPP21] | 0
RRHRQQKPTTTRRRRR [CPP65] | 0
RKQPGRKPGVRTARPKRSKKSQLKK [CPP58] | 0
RRRVGRRAPRRRRR [CPP51] | 0
RRARRRTRRGGGEAGRRQERRRRRRRR [CPP31] | 0
RKKKGKRKEERER [CPP55] | 0
RRRGRRRRRRRRQRQQRRQEGNRRR [CPP5] | 5.88
RRRRRRRRHGRR [CPP24] | 18.77
RRRRRRRRHLRR [CPP34] | 47.13
KGHRFRSKFRHYRFRFR [CPP45] | 0
KRKPKGGDAAEGSEKRKPKKKK [CPP16] | 0
RRFRRTAPRAAGEARGLRRLRKSR [CPP57] | 5.77
KSKANRHRHHRRHRQQKPTTTRRRRR [CPP64] | 5.40
RKRKRGKGIGSGRGRGRGRASGSEKGRGSGKGKAK [CPP44] | 11.27
RKEKKRIKQRKAFIMAEKKKRK [CPP13] | 0
RRRRKKRGRKGRDKEERRDRRRRRRR [CPP11] | 16.61
MRRRRRRRRR [CPP48] | 1.09

Substance | Average Transduction Efficiency [%]
RCRRRRRRRETTSR [CPP67] | 0
RLRRLLLPLRRRRRLRQRRR [CPP25] | 8.7
KEKKKERRGVRDKERDK [CPP53] | 0
RRRRKKRGRKGRDKEERRDR [CPP42] | 1.20
RRRRWRHRCATKTAATTLRRRRRRRRGRR [CPP29] | 22.25
RAGVDGRGRRRRRRRR [CPP50] | 1.31
RPLPLPLPLPRGPRRRRRRR [CPP30] | 0
RRIRRRLRRRPKPRRRRRRR [CPP17] | 46.54
KRRRSWRRRRSRTRQRRRRSRRRRRRRR [CPP41] | 21.17
RRRGIKPNAKRRRRRRRR [CPP23] | 0
RRRRRRREKLAEATRGGGEKR [CPP35] | 0
RRRPRPARLRHRLHRPINLKFERK [CPP15] | 9.23
RVRSSRRAAEGRRRRRRREKR [CPP37] | 1.94
RRGWRWRSAPRGGSRRRRRRRR [CPP12] | 5.25
KTAATTLRRRRRRRRGRR [CPP28] | 5.61
KKKGKGKKKKQGK [CPP4] | 0
RRSLLSRRIRRRLRRRPKPRRRRRRR [CPP46] | 9.31
KRKKSGKKKKIGRFLSRLVGAEKRR [CPP9] | 5.79
MALERPWKRRRRRRR [CPP47] | 0
RRRRRRRGRDARRR [CPP8] | 2.78
RRRRRRRAGERRAREDMGRRKFR [CPP19] | 0
RAWYRFRHLVRGKWRERLRRKFK [CPP62] | 9.78
RRRKGSSYRRRRRRRRR [CPP20] | 0

Substance | Average Transduction Efficiency [%]
RRSKRDVRGRQRRRRRRRLFPRR [CPP1] | 21.07
RSSRRAAEGRRRRRRRREKR [CPP36] | 0
RARRRSTARRRKRRTPTRSGR [CPP32] | 1.26
RRKNDKPKTGGEKKSTKDAPESSKKKNRK [CPP61] | 0
RRRQERRER [CPP63] | 0
RLKRRRRRRRKVSRR [CPP33] | 15.67
RRRRRRRRHEQRRRRRKRGRGR [CPP2] | 18.7
RRRRRITRVRRRRRRR [CPP39] | 13.15
RRWRRRRSRRRRRRRRR [CPP18] | 0
RKRKEENTGRRRRRRRERKRR [CPP22] | 1.94
RRRRCTRRRTRSRRRPRR [CPP3] | 57.63
RRDGVPRRRRRRRHMGRQR [CPP27] | 2.06
RRSGRRQRRRRRRRRKR [CPP66] | 23.38
KKKKKKKRPTALTPTPSLLRRRRRRR [CPP26] | 0
RRLTTGLSFYSKPYRRSRGPRHRTEKRKRIR [CPP56] | 5.47
RRLRCRREGKEKR [CPP60] | 0
RRPHSRHRRRRRRR [CPP10] | 0
RRRRARGKRCWLRRRRRR [CPP49] | 11.89
RRRRRRRRRRKRGGRR [CPP14] | 0
RRRRKKRGRKGRDKEERRDRRRRRRR [CPP40] | 11.74
RKRKRGKGIGSGRGRGRGR [CPP43] | 0

Each substance was assayed on scutellum and somatic embryos of triticale (assay: CPP delivery of mCherry protein, confocal microscopy). Conditions: mCherry 1 μM with 60 μM CPP, overnight at RT.
Type: cell-based
Excerpt: The fluorescent mCherry protein was chosen as the protein, while scutellum (dissected out of immature caryopses) and isolated microspore culture-derived somatic embryos of triticale were used as choice of tissue. Both scutellum and somatic embryos are amenable to tissue culture and can undergo somatic embryogenesis to regenerate green plants providing a direct means to obtain modified plants following a biocompatible CPP induced transduction. Scutellum is representative of a diploid tissue while microspore culture derived somatic embryos is a haploid tissue.
The protein:CPP complex was prepared by individually mixing mCherry protein (1 μM) with 60 μM of the 3 CPPs. Both scutellum and somatic embryos of triticale were treated with these different complex formulations overnight at RT. […] The red fluorescent signal was detected by confocal microscopy within both scutellum and somatic embryo cells.

Substance | Delivery of mCherry inside the cells, red fluorescent signal
RRRRRRRRHLRR [CPP34] | able to interact noncovalently with mCherry, subsequently delivering it inside the cells
RRIRRRLRRRPKPRRRRRRR [CPP17] | able to interact noncovalently with mCherry, subsequently delivering it inside the cells
RRRRCTRRRTRSRRRPRR [CPP3] | able to interact noncovalently with mCherry, subsequently delivering it inside the cells

From patent publication US20160340683A1, “NANOCARRIER BASED PLANT TRANSFECTION AND TRANSDUCTION” (HER MAJESTY THE QUEEN IN RIGHT OF CANADA AS REPRESENTED BY …, priority 2007, published 2016)
